Key:
[1] = Ferric reducing antioxidant power (FRAP) assay; settings: for FRAP: ferric reducing antioxidant power: compound 1 mM, 593 nm
Procedure: The FRAP reagent is a 1:1:10 mixture of TPTZ (2,4,6-Tris(2-pyridyl)-S-triazine, 10 mM prepared in 40 mM HCl), FeCl3.6H2O (20 mM), and acetate buffer (300 mM, pH 3.6). Accurately, 0.1 mL of the samples (final concentration 1 mM in DMSO) was thoroughly mixed with 2 mL of the FRAP reagent and incubated at room temperature for 30 min. At 593 nm, the absorbance was measured. The compounds FRAP activity was calculated using the FRAP-trolox calibration curve in trolox equivalent.

[2] = DPPH scavenging activity (DPPH-SA); settings: for DPPH-SA: 2,2-diphenyl-1-picrylhydrazyl scavenging activity: compound 1 mM, 517 nm
Procedure: The ability of the compounds to scavenge free radicals was tested against DPPH-stable free radicals. The degree of reduction in the DPPH violet color is directly proportional to the scavenging efficacy of the compounds. According to the method of Aroua et al., 1 mL of the DMSO solutions of the tested compounds (1 mM final concentration) was thoroughly mixed in test tubes with the DPPH solution prepared at the concentration of 300 µM in methanol. After 30 min at room temperature, the reduction in DPPH-violet color was measured at 517 nm. The DPPH-SA of the compounds was calculated using the DPPH-Trolox calibration curve.

α-glucosidase = target: T1, α-glucosidase (Saccharomyces cerevisiae, UniProt P53341); assay: biochemical; settings: triplicate values; read-out: α-Glucosidase Inhibition IC50 ± SEM
T1 construct: purchased Sigma-Aldrich
T1 sequence (P53341 whole entry): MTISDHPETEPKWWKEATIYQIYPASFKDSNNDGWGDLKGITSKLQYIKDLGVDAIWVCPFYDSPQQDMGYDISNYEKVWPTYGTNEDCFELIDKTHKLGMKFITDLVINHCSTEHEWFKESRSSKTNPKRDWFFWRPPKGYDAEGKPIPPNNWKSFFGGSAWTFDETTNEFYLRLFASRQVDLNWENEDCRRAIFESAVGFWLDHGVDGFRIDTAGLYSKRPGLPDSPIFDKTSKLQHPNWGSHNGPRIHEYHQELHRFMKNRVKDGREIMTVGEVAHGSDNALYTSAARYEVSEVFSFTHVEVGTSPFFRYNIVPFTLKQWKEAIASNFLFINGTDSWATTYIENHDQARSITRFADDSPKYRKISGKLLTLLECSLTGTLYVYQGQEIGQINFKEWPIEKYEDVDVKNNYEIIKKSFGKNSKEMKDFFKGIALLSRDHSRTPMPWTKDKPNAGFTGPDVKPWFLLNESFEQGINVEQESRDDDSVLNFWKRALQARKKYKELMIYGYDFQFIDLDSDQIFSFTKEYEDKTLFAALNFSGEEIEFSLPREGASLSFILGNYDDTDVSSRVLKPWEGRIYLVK
Procedure: The inhibition of α-glucosidase activity was measured using a modified version of a previously published method. In 100 mL of phosphate buffer (pH 6.8) containing 200 mg of bovine serum albumin, one milligram of α-glucosidase (Saccharomyces cerevisiae, Sigma-Aldrich, St. Louis, MO, USA) was dissolved (Merck, Darmstadt, Germany). The reaction mixture was made up of 10 μL of sample at various concentrations ([…]), 490 μL of phosphate buffer pH 6.8, and 250 μL of 5 mM p-nitrophenyl-D-glucopyranoside (Sigma-Aldrich, Buchs, Switzerland). After a 5 min preincubation at 37 °C, 250 μL of α-glucosidase (0.15 unit/mL) was added and incubated at 37 °C for 15 min. The reaction was stopped by adding 2000 μL Na2CO3 200 mM. α-glucosidase activity was measured using a spectrophotometer UV-Vis (Shimadzu 265, Kyoto, Japan) at 400 nm by measuring the amount of p-nitrophenol released from p-NPG. […] Equation (1) was used to calculate the percentage of inhibition.

[3] = Iron chelating activity assay (MCA); settings: for MCA: metal chelating activity: compound 1 mM, 562 nm
Procedure: Using the method of Zengin et al. with modification, the ability of compounds to chelate iron compared to the EDTA was estimated. To inchoate the color, a compound solution in DMSO ([…] a final concentration of 1 mM) plus ferrous chloride (25 μL, 2 mM, FeCl2) was added to 100 μL of ferrozine. At 562 nm, the absorbance of the mixture was measured in comparison to a blank (prepared similarly to a test without ferrozine). The chelating activity of the extract was calculated in equivalents to the EDTA standard calibration curve.

[4] = Total antioxidant capacity (TAC), molybdate reduction; settings: for TAC: total antioxidant capacity: compound 1 mM in DMSO, 695 nm
Procedure: An amount of 2 mL of freshly prepared 0.6 M solution of sulfuric acid, a solution of ammonium molybdate (4 mM), and a buffer solution of sodium phosphate (28 mM) were placed in small glass test tubes and thoroughly mixed with the compound solution (200 μL in DMSO with a concentration of 1 mM). An amount of 2 mL of molybdate reagent was mixed with 200 μL of distilled water to make a blank test. The cylinders were warmed to 85 °C for 1.5 h before cooling to ambient temperature. At 695 nm, the produced blue color was assessed with a UV spectrophotometer, with the blank reading having to serve as the auto-zero point. The TAC results were calculated using the Trolox standard calibration curve.

α-amylase = α-amylase (Aspergillus oryzae, UniProt P0C1B3); assay: biochemical; settings: triplicate values; read-out: α-Amylase Inhibition IC50 ± SEM
Procedure: The α-amylase inhibition activity was measured using the previously reported methodologies. An amount of 500 μL of test sample ([…]) and 500 μL of […] α-amylase (source: Aspergillus oryzae) solution (0.5 mg/mL) in […] phosphate buffer (pH 6.9) were incubated for 10 min at 25 °C. Following pre-incubation, 500 μL of 1% starch solution in 0.02 M sodium phosphate buffer (pH 6.9) was added and incubated for 10 min at 25 °C. An amount of 1 mL of dinitro salicylic acid color reagent was used to stop the reaction. The tubes were then placed in boiling water for 5 min before being cooled to room temperature. After diluting the solutions with 10 mL of distilled water, the absorbance at 540 nm was measured. […] The percentage of enzyme inhibition was calculated using the following equation:(1) % of Enzyme Inhibition=(Absorbance of control – Absorbance of compound)×100 /Absorbance of control

SMILES	IC50 (α-glucosidase)	melting point	IC50 (α-amylase)	FRAP: ferric reducing antioxidant power [1]	DPPH-SA: 2,2-diphenyl-1-picrylhydrazyl scavenging activity [2]	MCA: metal chelating activity [3]	total antioxidant capacity (TAC), molybdenum (VI) reducing activity [4]	TAC: total antioxidant capacity [4]	metal chelating activity (MCA) [3]	ferric reducing antioxidant power (FRAP) [1]	DPPH-SA [2]
O=C(Nc1ccccc1-c1nc2ccccc2[nH]1)Nc1cccc2ccccc12 [3b, 1-(2-(1H-benzo[d]imidazol-2-yl)phenyl)-3-(naphthalen-1-yl)urea]	45.97 ± 0.19 µM	203 to 205 °C	41.7 ± 0.06 µM	9.25 ± 0.20 trolox equivalent per 1 mM of the compounds	0.96 ± 0.06 trolox equivalent per 1 mM of the compounds	1.55 ± 0.07 EDTA equivalent per 1 mM of the compounds	5.16 ± 0.69 mM trolox equivalents	5.16 ± 0.69 trolox equivalent per 1 mM of the compounds	–	–	–
COc1ccc(NC(=O)Nc2ccccc2-c2nc3ccccc3[nH]2)cc1 [3c, 1-(2-(1H-benzo[d]imidazol-2-yl)phenyl)-3-(4-methoxyphenyl)urea]	17.47 ± 0.03 µM	197 to 199 °C	18.7 ± 0.23 µM	8.65 ± 0.29 trolox equivalent per 1 mM of the compounds	1.61 ± 0.02 trolox equivalent per 1 mM of the compounds	1.55 ± 0.22 EDTA equivalent per 1 mM of the compounds	4.43 ± 0.53 mM trolox equivalents	4.43 ± 0.53 trolox equivalent per 1 mM of the compounds	–	8.65 ± 0.29 mM trolox equivalents	–
O=C(Nc1ccccc1-c1nc2ccccc2[nH]1)NC1CCCCC1 [3d, 1-(2-(1H-benzo[d]imidazol-2-yl)phenyl)-3-cyclohexylurea]	27.47 ± 0.13 µM	330 to 332 °C	25.65 ± 0.03 µM	5.67 ± 0.69 trolox equivalent per 1 mM of the compounds	2.89 ± 1.07 trolox equivalent per 1 mM of the compounds	1.46 ± 0.10 EDTA equivalent per 1 mM of the compounds	–	2.47 ± 0.42 trolox equivalent per 1 mM of the compounds	–	–	2.89 ± 1.07 mM trolox equivalents
O=C(Nc1ccccc1)Nc1ccccc1-c1nc2ccccc2[nH]1 [3a, 1-(2-(1H-benzo[d]imidazol-2-yl)phenyl)-3-phenylurea]	42.97 ± 0.19 µM	129 to 131 °C	40.7 ± 0.06 µM	6.53 ± 0.03 trolox equivalent per 1 mM of the compounds	1.17 ± 0.07 trolox equivalent per 1 mM of the compounds	1.62 ± 0.10 EDTA equivalent per 1 mM of the compounds	–	1.33 ± 0.46 trolox equivalent per 1 mM of the compounds	–	–	–
CC(C)NC(=O)Nc1ccccc1-c1nc2ccccc2[nH]1 [3e, 1-(2-(1H-benzo[d]imidazol-2-yl)phenyl)-3-isopropylurea]	21.97 ± 0.19 µM	196 to 198 °C	20.7 ± 0.06 µM	2.75 ± 0.15 trolox equivalent per 1 mM of the compounds	1.70 ± 0.01 trolox equivalent per 1 mM of the compounds	1.47 ± 0.09 EDTA equivalent per 1 mM of the compounds	–	2.52 ± 0.80 trolox equivalent per 1 mM of the compounds	–	–	–

Continued, in another order:

IC50 (α-glucosidase)	melting point	IC50 (α-amylase)	SMILES	FRAP: ferric reducing antioxidant power [1]	DPPH-SA: 2,2-diphenyl-1-picrylhydrazyl scavenging activity [2]	MCA: metal chelating activity [3]	total antioxidant capacity (TAC), molybdenum (VI) reducing activity [4]	TAC: total antioxidant capacity [4]	metal chelating activity (MCA) [3]	ferric reducing antioxidant power (FRAP) [1]	DPPH-SA [2]
29.01 ± 0.12 µM	196 to 198 °C	28.33 ± 0.02 µM	CCCCNC(=O)Nc1ccccc1-c1nc2ccccc2[nH]1 [3f, 1-(2-(1H-benzo[d]imidazol-2-yl)phenyl)-3-butylurea]	5.99 ± 0.02 trolox equivalent per 1 mM of the compounds	1.55 ± 0.03 trolox equivalent per 1 mM of the compounds	1.40 ± 0.07 EDTA equivalent per 1 mM of the compounds	8.50 ± 0.87 mM trolox equivalents	8.50 ± 0.87 trolox equivalent per 1 mM of the compounds	–	–	–
44.99 ± 0.09 µM	190 to 192 °C	43.04 ± 0.02 µM	O=C(NCC1CCC(CNC(=O)Nc2ccccc2-c2nc3ccccc3[nH]2)CC1)Nc1ccccc1-c1nc2ccccc2[nH]1 (centres unmarked) [3h, 1,1′-(cyclohexane-1,4-diylbis(methylene))bis(3-(2-(1H-benzo[d]imidazol-2-yl)phenyl)urea)]	6.79 ± 0.50 trolox equivalent per 1 mM of the compounds	1.09 ± 0.03 trolox equivalent per 1 mM of the compounds	2.95 ± 0.21 EDTA equivalent per 1 mM of the compounds	–	2.25 ± 0.65 trolox equivalent per 1 mM of the compounds	2.95 ± 0.21 mM EDTA equivalents	–	–
23.01 ± 0.12 µM	190 to 192 °C	22.33 ± 0.12 µM	O=C(Nc1ccc(NC(=O)Nc2ccccc2-c2nc3ccccc3[nH]2)cc1)Nc1ccccc1-c1nc2ccccc2[nH]1 [3g, 1,1’-(1,4-phenylene)bis(3-(2-(1H-benzo[d]imidazol-2-yl)phenyl)urea)]	16.12 ± 0.29 trolox equivalent per 1 mM of the compounds	3.86 ± 0.04 trolox equivalent per 1 mM of the compounds	1.36 ± 0.09 EDTA equivalent per 1 mM of the compounds	10.06 ± 1.51 mM trolox equivalents	10.06 ± 1.51 trolox equivalent per 1 mM of the compounds	–	16.12 ± 0.29 mM trolox equivalents	3.86 ± 0.04 mM trolox equivalents
